# Test results published in patent US20240350493A1 (Kadmon Corporation, LLC, priority 2022, published 2024).
# Like-named read-outs stand apart in the source and are kept apart here.
# What was measured:
# CYP2D6 = CYP2D6 (Homo sapiens, UniProt P10635); assay: incubations with recombinant enzymes; type: in vitro ADME
# CYP2C8 = CYP2C8 (Homo sapiens, UniProt P10632); assay: incubations with recombinant enzymes; type: in vitro ADME
# CYP1A2 [1] = molecular target: T1, CYP1A2 (Homo sapiens, UniProt P05177); assay: incubations with recombinant enzymes; type: in vitro ADME
# pH-dependent solubility = type: physicochemical
# [2] = previously conducted solubility studies; type: physicochemical
# Description: Rabeprazole, a strong PPI, suppresses the secretion of gastric acid by noncompetitive blockade of H+/K+-adenosine triphosphatase at the secretory surface of gastric parietal cells, thereby raising the intra-gastric pH above 3.0. The recommended starting dose of sodium rabeprazole for subjects with GI ulcers and GERD is 20 mg per day and for subjects with hypersecretory syndromes is 60 mg per day (Accord-UK Ltd. Summary of Product Characteristics: Rabeprazole 20 mg Gastro-resistant Tablets, available at www.medicines.org.uk/emc/medicine/27143/SPC/Rabeprazole+20 mg+Gastro-resistant+Tablets/. Updated 16 Apr. 2020. Accessed 12 Aug. 2021).
# [3] = food effect study, 5 × 100 mg capsules (KD025-105); type: in vivo, human; details: for AUC(0-t) / AUC(0-inf) / Cmax / Tmax / half-life: male, human, plasma, oral, 500 mg, 5 × 100 mg capsules; for Tmax: read-out: Tmax, median (range)
# Description: Both studies were single-center, open-label, randomized, single dose crossover studies in healthy males.
# Water was permitted ad libitum except for 1 hour pre-and post-dose.
# In both studies, serial blood samples for PK analysis were collected at pre-dose and 1, 2, 4, 6, 8, 12, 16, 24, and 36 hours post-dose. An additional sample at 30 hours post-dose was collected in the first study; additional samples were collected 3, 5, and 48 hours post-dose in the second study. Blood samples (5-6 mL per sample) were collected in K3EDTA tubes on ice and were processed within 30 minutes of collection, then frozen at approximately-70 to −80° C. shortly after collection.
# Sample preparation was performed by protein precipitation.
# Statistical analyses were performed in SAS using the PROC MIXED procedure and the Restricted Maximum Likelihood estimation method. In both studies, the presence of a food effect was evaluated by a formal statistical analysis on natural log-transformed AUC and Cmax using mixed effect modeling techniques. The model included treatment, period, and sequence as fixed effects and subject nested within sequence as a random effect. Adjusted geometric mean ratios (GMRs) and their 90% confidence intervals (CIs) were calculated for fed (test) versus fasted (reference) treatments. The absence of a food effect was to be concluded if the 90% CI was within the bioequivalence limits of 80.00 to 125.00%.
# [4] = pharmacokinetics in healthy subjects (label); type: in vivo, human
# human serum albumin = human serum albumin (Homo sapiens, UniProt P02768); assay: protein binding in vitro; type: in vitro ADME
# BCRP = BCRP (Homo sapiens, UniProt Q9UNQ0); assay: transporter inhibition, in vitro; type: in vitro ADME; details: at clinically relevant concentrations
# CYP1A2 [5] = molecular target: T1, CYP1A2; assay: enzyme inhibition, in vitro; type: in vitro ADME
# CYP2C19 = CYP2C19 (Homo sapiens, UniProt P33261); assay: enzyme inhibition, in vitro; type: in vitro ADME
# pregnant rats = assay: embryo-fetal development studies in rats; type: in vivo, rat
# Description: In the pilot study, maternal toxicity and embryo-fetal developmental effects were observed. Maternal toxicity (reduced body weight gain) occurred at 150 and 300 mg/kg/day doses. Increased post-implantation loss occurred at 50 and 300 mg/kg/day.
# rat bone marrow = assay: in vivo rat bone marrow micronucleus assay
# [6] = single oral dose of radiolabeled belumosudil
# T1 sequence (P05177 whole entry): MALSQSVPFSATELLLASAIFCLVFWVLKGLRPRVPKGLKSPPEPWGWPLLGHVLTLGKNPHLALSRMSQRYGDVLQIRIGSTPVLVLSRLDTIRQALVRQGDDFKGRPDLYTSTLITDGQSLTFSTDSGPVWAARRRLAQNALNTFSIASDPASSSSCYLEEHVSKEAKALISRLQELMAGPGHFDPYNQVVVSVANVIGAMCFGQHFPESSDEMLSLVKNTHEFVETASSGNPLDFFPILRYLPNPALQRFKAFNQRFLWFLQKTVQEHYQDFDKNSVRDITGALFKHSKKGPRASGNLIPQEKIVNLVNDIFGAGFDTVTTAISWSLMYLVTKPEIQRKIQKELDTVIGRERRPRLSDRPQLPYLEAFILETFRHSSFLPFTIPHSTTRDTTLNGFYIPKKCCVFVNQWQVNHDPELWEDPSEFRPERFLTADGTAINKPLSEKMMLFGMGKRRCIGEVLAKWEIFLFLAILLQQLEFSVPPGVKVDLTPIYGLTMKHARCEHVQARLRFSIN
# Sequence of CYP2C8 (P10632 whole entry): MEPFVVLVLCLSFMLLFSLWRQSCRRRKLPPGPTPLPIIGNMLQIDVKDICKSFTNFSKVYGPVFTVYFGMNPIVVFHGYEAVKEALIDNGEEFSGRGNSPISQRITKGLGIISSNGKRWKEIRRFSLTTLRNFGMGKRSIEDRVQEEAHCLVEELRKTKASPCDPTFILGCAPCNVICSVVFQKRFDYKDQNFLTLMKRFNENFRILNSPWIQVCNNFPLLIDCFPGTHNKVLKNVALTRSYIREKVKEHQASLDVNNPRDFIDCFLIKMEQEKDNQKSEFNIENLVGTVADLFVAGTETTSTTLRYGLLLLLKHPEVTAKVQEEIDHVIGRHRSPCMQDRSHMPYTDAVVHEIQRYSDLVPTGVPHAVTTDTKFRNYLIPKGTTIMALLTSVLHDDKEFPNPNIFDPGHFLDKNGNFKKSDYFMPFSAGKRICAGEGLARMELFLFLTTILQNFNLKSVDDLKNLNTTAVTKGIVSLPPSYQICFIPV
# Sequence of BCRP (Q9UNQ0 whole entry): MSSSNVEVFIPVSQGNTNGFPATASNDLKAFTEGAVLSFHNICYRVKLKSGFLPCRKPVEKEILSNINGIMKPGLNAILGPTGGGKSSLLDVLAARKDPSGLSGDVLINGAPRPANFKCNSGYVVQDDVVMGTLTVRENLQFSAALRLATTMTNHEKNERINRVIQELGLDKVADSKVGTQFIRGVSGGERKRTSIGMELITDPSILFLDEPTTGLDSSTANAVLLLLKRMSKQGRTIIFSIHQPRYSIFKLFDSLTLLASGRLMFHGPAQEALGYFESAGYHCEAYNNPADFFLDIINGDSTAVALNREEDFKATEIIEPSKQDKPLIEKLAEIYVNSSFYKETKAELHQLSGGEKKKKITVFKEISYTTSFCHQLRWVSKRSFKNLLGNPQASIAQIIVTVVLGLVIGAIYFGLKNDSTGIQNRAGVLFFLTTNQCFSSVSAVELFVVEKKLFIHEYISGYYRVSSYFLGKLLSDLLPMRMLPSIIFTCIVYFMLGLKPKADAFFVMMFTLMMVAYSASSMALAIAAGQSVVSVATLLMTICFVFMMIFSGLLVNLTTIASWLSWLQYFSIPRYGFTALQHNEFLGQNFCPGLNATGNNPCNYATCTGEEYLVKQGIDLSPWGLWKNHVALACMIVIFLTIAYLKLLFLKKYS
# Sequence of human serum albumin (P02768 25-609): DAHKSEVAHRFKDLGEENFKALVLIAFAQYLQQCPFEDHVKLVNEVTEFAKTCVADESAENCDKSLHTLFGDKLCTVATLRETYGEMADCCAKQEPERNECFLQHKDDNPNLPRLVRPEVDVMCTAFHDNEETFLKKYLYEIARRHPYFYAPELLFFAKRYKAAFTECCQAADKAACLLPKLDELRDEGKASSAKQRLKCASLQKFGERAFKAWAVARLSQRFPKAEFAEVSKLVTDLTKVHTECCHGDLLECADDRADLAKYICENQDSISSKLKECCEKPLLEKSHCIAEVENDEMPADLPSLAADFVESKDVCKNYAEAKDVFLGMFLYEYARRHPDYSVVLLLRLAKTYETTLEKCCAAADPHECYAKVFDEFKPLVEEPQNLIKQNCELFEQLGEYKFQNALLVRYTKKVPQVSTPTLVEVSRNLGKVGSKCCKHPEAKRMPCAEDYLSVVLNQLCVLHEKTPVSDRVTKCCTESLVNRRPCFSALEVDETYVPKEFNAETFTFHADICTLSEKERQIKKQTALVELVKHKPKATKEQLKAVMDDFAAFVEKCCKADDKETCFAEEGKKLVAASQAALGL
# Sequence of CYP2C19 (P33261 whole entry): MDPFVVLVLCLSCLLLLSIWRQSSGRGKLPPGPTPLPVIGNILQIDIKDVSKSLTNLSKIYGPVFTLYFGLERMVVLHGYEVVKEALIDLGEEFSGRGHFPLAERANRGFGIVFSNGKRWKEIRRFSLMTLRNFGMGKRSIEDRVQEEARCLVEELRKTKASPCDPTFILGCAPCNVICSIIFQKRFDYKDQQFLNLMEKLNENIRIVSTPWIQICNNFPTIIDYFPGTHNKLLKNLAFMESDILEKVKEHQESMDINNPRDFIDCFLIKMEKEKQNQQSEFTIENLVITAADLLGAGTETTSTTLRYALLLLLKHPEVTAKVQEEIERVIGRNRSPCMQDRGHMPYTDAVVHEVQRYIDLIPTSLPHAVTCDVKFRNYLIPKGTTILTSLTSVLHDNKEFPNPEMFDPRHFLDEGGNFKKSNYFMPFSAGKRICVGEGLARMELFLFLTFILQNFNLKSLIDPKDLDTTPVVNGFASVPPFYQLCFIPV
# Sequence of CYP2D6 (P10635 whole entry): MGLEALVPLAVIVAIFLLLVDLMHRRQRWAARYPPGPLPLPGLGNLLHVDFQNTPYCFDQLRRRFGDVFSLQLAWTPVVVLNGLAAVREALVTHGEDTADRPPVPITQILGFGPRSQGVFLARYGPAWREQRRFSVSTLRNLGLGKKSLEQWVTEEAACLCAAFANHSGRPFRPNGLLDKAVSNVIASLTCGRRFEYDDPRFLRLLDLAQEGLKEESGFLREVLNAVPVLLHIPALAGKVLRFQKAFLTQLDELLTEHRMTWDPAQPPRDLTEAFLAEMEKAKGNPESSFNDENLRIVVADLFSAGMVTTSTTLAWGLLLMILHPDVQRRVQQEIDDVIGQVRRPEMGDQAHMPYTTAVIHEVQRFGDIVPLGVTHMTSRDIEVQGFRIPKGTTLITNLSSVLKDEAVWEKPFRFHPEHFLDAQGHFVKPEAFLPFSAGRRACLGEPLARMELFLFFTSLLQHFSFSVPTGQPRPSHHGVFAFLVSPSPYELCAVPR
compound,measurement,setting,value
"CC(C)NC(=O)COc1cccc(-c2nc(Nc3ccc4[nH]ncc4c3)c3ccccc3n2)c1 [Belumosudil, 2-{3-[4-(1H-indazol-5-ylamino)-2-quinazolinyl]phenoxy}-N-(propan-2-yl) acetamide]",share of belumosudil metabolism,CYP2D6,21.7%
same,share of belumosudil metabolism,CYP2C8,14.2%
same,share of belumosudil metabolism,CYP1A2 [1],< 5%
same,solubility,"pH-dependent solubility; pH 1.08, simulated gastric fluid",11 µg/mL
same,solubility,"pH-dependent solubility; pH 1.6, simulated gastric fluid",1640 µg/mL
same,solubility,"pH-dependent solubility; pH 6.5, aqueous buffer",3 µg/mL
same,solubility,"pH-dependent solubility; simulated gastric fluid, pH 2.0",1430 µg/mL
same,solubility,"[2]; pH 2.7, aqueous buffer",> 100 µg/mL
same,solubility,"[2]; pH 6.5, aqueous buffer",~4 µg/mL
same,solubility,"[2]; pH 7.4, aqueous buffer",~3 µg/mL
same,GMRs fed vs fasted for Cmax and AUC,[3]; 500 mg capsules,above 125%
same,AUC(0-t),"[3]; fasted, read-out: AUC0-24, arithmetic mean (SD)",7980 ng·h/mL
same,AUC(0-t),"[3]; fasted, read-out: AUC0-24, geometric mean (geometric CV %)",7600 ng·h/mL
same,AUC(0-inf),"[3]; fasted, read-out: AUCinf, arithmetic mean (SD)",8700 ng·h/mL
same,AUC(0-inf),"[3]; fasted, read-out: AUCinf, geometric mean (geometric CV %)",8310 ng·h/mL
same,AUC(0-t),"[3]; fasted, read-out: AUClast, arithmetic mean (SD)",8590 ng·h/mL
same,AUC(0-t),"[3]; fasted, read-out: AUClast, geometric mean (geometric CV %)",8190 ng·h/mL
same,Cmax,"[3]; fasted, read-out: Cmax, arithmetic mean (SD)",1580 ng/mL
same,Cmax,"[3]; fasted, read-out: Cmax, geometric mean (geometric CV %)",1500 ng/mL
same,Tmax,[3]; fasted,2 h
same,half-life,"[3]; fasted, read-out: t1/2, arithmetic mean (SD) (converted)",9.5 h
same,half-life,"[3]; fasted, read-out: t1/2, geometric mean (geometric CV %) (converted)",9 h
same,AUC(0-t),"[3]; fed, read-out: AUC0-24, arithmetic mean (SD)",25100 ng·h/mL
same,AUC(0-t),"[3]; fed, read-out: AUC0-24, geometric mean (geometric CV %)",23300 ng·h/mL
same,AUC(0-inf),"[3]; fed, read-out: AUCinf, arithmetic mean (SD)",26900 ng·h/mL
same,AUC(0-inf),"[3]; fed, read-out: AUCinf, geometric mean (geometric CV %)",25100 ng·h/mL
same,AUC(0-t),"[3]; fed, read-out: AUClast, arithmetic mean (SD)",26200 ng·h/mL
same,AUC(0-t),"[3]; fed, read-out: AUClast, geometric mean (geometric CV %)",24400 ng·h/mL
same,Cmax,"[3]; fed, read-out: Cmax, arithmetic mean (SD)",4280 ng/mL
same,Cmax,"[3]; fed, read-out: Cmax, geometric mean (geometric CV %)",3780 ng/mL
same,Tmax,[3]; fed,4 h
same,half-life,"[3]; fed, read-out: t1/2, arithmetic mean (SD) (converted)",8 h
same,half-life,"[3]; fed, read-out: t1/2, geometric mean (geometric CV %) (converted)",7.9 h
same,increase in AUC with high-fat and high-calorie meal vs fasted,[4]; single dose,2 times
same,increase in Cmax with high-fat and high-calorie meal vs fasted,[4]; single dose,2.2 times
same,radioactivity recovered in feces,[4]; [6],85%
same,radioactivity recovered in urine,[4]; [6],less than 5%
same,recovered in feces as unchanged,[4]; [6],30%
same,binding to human serum albumin,human serum albumin,99.9%
same,BCRP inhibition,BCRP,inhibits
same,CYP1A2 inhibition,CYP1A2 [5],inhibitor
same,CYP2C19 inhibition,CYP2C19,inhibitor
same,doses with fetal malformations,"pregnant rats; pilot study, oral, period of organogenesis",≥ 50 mg/kg/day
same,"maternal exposures (AUC) with adverse developmental outcomes, times human exposure at recommended dose",pregnant rats; rat,≥ 3 times
same,genotoxicity,rat bone marrow,not genotoxic
